PMC12837263, “β,β-Dimethylacrylalkannin Restores Colistin Efficacy Against mcr- and TCS-Mediated Resistant Gram-Negative Bacteria via Membrane Disturbance” (Antibiotics, 2025)

What was measured:
[1] = set-up: method as in PMID 31882661; details: cited from earlier work
E. coli 13f4(mcr-1) = experiment: Checkerboard assay (MIC, FICI); assay type: cell-based; details: E. coli 13f4 (mcr-1); antibiotic + β,β-Dim
Method: (§1) The FICI of β,β-Dim–colistin combination was determined by a checkerboard assay. Briefly, two-fold serial dilutions of β,β-Dim and colistin were prepared in a 96-well plate. After incubation at 37 °C for 18 h with bacterial suspension (10^6 CFU/mL), OD600 values were measured. FICI = (MICβ,β-Dim in combination/MICβ,β-Dim) + (MICcolistin in combination/MICcolistin). The synergistic effect of β,β-Dim with other antibiotics was measured in the same way. Synergy was considered to be an FICI ≤ 0.5.

[2] = tested on: K. pneumoniae 667(phoP、pmrA、blaKPC); experiment: Checkerboard assay (MIC, FICI); assay type: cell-based; details: K. pneumoniae 667 (phoP, pmrA); antibiotic + β,β-Dim
Method: as §1

SMILES	reduction of colistin MIC by combination with CCCP [1]	FICI of β,β-Dim combined with the antibiotic (E. coli 13f4(mcr-1))	FICI of β,β-Dim combined with the antibiotic [2]
N#CC(C#N)=NNc1cccc(Cl)c1 [CCCP, carbonyl cyanide 3-chloro phenyl hydrazone]	approximately 8 fold	–	–
CC1(C)S[C@@H]2[C@H](NC(=O)[C@H](N)c3ccccc3)C(=O)N2[C@H]1C(=O)O [ampicillin]	–	> 1	> 1
O=C(O)c1cn(C2CC2)c2cc(N3CCNCC3)c(F)cc2c1=O [ciprofloxacin]	–	> 1	> 1
C[C@H]1c2cccc(O)c2C(=O)C2=C(O)[C@]3(O)C(=O)C(C(N)=O)=C(O)[C@@H](N(C)C)[C@@H]3[C@@H](O)[C@@H]21 [doxycycline]	–	> 1	> 1
CS(=O)(=O)c1ccc([C@@H](O)[C@@H](CF)NC(=O)C(Cl)Cl)cc1 [florfenicol]	–	> 1	> 1
CNC(C)C1CCC(N)C(OC2C(N)CC(N)C(OC3OCC(C)(O)C(NC)C3O)C2O)O1 (stereo not drawn) [gentamicin]	–	> 1	> 1
CO[C@H]1/C=C/O[C@@]2(C)Oc3c(C)c(O)c4c(O)c(c(/C=N/N5CCN(C)CC5)c(O)c4c3C2=O)NC(=O)/C(C)=C\C=C\[C@H](C)[C@H](O)[C@@H](C)[C@@H](O)[C@@H](C)[C@H](OC(C)=O)[C@@H]1C [rifampicin]	–	> 1	> 1
CC[C@H]1OC(=O)C[C@@H](O)[C@H](C)[C@@H](O[C@@H]2O[C@H](C)[C@@H](O[C@H]3C[C@@](C)(O)[C@@H](O)[C@H](C)O3)[C@H](N(C)C)[C@H]2O)[C@@H](CC=O)C[C@@H](C)C(=O)/C=C/C(C)=C/[C@@H]1CO[C@@H]1O[C@H](C)[C@@H](O)[C@@H](OC)[C@H]1OC [tylosin]	–	> 1	> 1
